# Experimental data from patent publication US20260022142A1, “MACROCYCLIC IMMUNOMODULATORS” (Bristol-Myers Squibb Company, priority 2022, published 2026).
# Bridge positions count the residues as written; N and C are the ends. Square brackets hold non-standard residues; d marks the D form. Peptide text beside a SMILES is read from it. * marks the point of attachment. ξ: configuration not given here. Bip = N[C@@H](Cc1ccc(-c2ccccc2)cc1)C(=O)O; Tyr(3-Me) = Cc1cc(C[C@H](N)C(=O)O)ccc1O; Phe(3-Me) = Cc1cccc(C[C@H](N)C(=O)O)c1; Phe(2-Me) = Cc1ccccc1C[C@H](N)C(=O)O; hArg = N=C(N)NCCCC[C@H](N)C(=O)O; 4Pal = N[C@@H](Cc1ccncc1)C(=O)O; Cha = N[C@@H](CC1CCCCC1)C(=O)O; Cit = NC(=O)NCCC[C@H](N)C(=O)O; Thr(3ξ) = CC(O)[C@H](N)C(=O)O; 3Abz = Nc1cccc(C(=O)O)c1; Carboxymethyl = O=C(O)C*; Orn = NCCC[C@H](N)C(=O)O; Aun = NCCCCCCCCCCC(=O)O; Dab = NCC[C@H](N)C(=O)O; Dap = NC[C@H](N)C(=O)O; AEEA = NCCOCCOCC(=O)O; Piv = CC(C)(C)C(=O)*
# Molecular target: T1, PD-1/PD-L1 interaction (PE-labeled human PD-L1-Ig binding to Jurkat cell line over-expressing human PD-1) (Homo sapiens, UniProt Q15116)
# T1 construct: expressed in transfected cells; host or cells: Jurkat
# T1 sequence (Q15116 25-288): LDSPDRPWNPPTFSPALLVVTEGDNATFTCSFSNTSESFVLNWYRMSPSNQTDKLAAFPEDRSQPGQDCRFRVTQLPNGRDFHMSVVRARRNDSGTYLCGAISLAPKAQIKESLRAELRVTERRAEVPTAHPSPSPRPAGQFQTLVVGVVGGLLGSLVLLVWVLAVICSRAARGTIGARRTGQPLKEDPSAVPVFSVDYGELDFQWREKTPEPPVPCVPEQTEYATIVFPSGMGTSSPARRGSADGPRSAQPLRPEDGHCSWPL
# Experiment: Jurkat-PD-1 Cell Binding High-Content Screening Assay (CBA)
# Type: cell-based
# Settings: Jurkat cell line over-expressing human PD-1; PE-labeled PD-L1-Ig 20 nM final; read-out: Jurkat hPD1-PDL1 IC50
# Method in brief: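 Read-out is high-content imaging of cell-bound phycoerythrin-tagged PD-L1-Ig on fixed, Hoechst-counterstained Jurkat cells that over-express human PD-1. Compound exposure lasts 2 h at 37° C before the labeled ligand (20 nM final) is added for a further hour.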
row,Compound,IC50
1,CC(C)C[C@@H]1NC(=O)[C@H](Cc2c[nH]c3ccccc23)NC(=O)[C@H](CC(=O)O)NC(=O)[C@H](Cc2ccncc2)NC(=O)[C@H](Cc2ccc(OCC(=O)O)cc2)NC(=O)CSC[C@@H](C(=O)Nc2cccc(C(=O)NCCCCCCCCCCC(=O)O)c2)NC(=O)[C@H](CN)NC(=O)[C@H](C(C)C)NC(=O)[C@H](CC2CCCCC2)NC(=O)[C@H](CCN)NC(=O)[C@@H](CC(C)C)NC(=O)[C@H](CCCN)NC(=O)[C@H](C(C)C)NC(=O)[C@H](Cc2ccc(-c3ccccc3)cc2)NC1=O [Compound 1282] ({CH2CO}-Y(Carboxymethyl)[4Pal]DWL[Bip]V[Orn][dL][Dab][Cha]V[Dap]C[3Abz][Aun]-OH; thioether N-14),631 nM
2,CC(C)C[C@H]1NC(=O)[C@H](CCCN)NC(=O)[C@H](C(C)C)NC(=O)[C@H](Cc2ccc(-c3ccccc3)cc2)NC(=O)[C@H](C(C)C)NC(=O)[C@H](Cc2c[nH]c3ccccc23)NC(=O)[C@H](CC(=O)O)NC(=O)[C@H](Cc2ccc(OCC(=O)O)cc2)NC(=O)[C@H](CCCCNC(=N)N)NC(=O)CSC[C@@H](C(=O)N[C@@H](CCN)C(=O)NCCOCCOCC(=O)NCCCCCCCCCCC(=O)O)NC(=O)[C@H](CCCN)NC(=O)[C@H](C(C)C)NC(=O)[C@H](CC2CCCCC2)NC(=O)[C@H](CC(N)=O)NC1=O [Compound 3216] ({CH2CO}-[hArg]Y(Carboxymethyl)DWV[Bip]V[Orn][dL]N[Cha]V[Orn]C[Dab][AEEA][Aun]-OH; thioether N-14),35.2 nM
3,Cc1cc(C[C@@H]2NC(=O)[C@H](CC(=O)O)NC(=O)[C@H](Cc3ccc(OCC(=O)O)cc3)NC(=O)[C@H](CCCNC(=N)N)NC(=O)CSC[C@@H](C(=O)N[C@@H](CCN)C(=O)NCCCCCCCCCCC(=O)O)NC(=O)[C@H]([C@@H](C)O)NC(=O)[C@H](C(C)C)NC(=O)[C@H](CC3CCCCC3)NC(=O)[C@H](CCN)NC(=O)[C@@H](CC(C)C)NC(=O)[C@H](CCCN)NC(=O)[C@H](Cc3ccc(O)cc3)NC(=O)[C@H](Cc3ccc(-c4ccccc4)cc3)NC(=O)[C@H](Cc3ccc(O)cc3)NC2=O)ccc1O [Compound 2104] ({CH2CO}-RY(Carboxymethyl)D[Tyr(3-Me)]Y[Bip]Y[Orn][dL][Dab][Cha]VTC[Dab][Aun]-OH; thioether N-14),22.3 nM
4,Cc1cccc(C[C@@H]2NC(=O)[C@H](CC(=O)O)NC(=O)[C@H](Cc3ccc(OCC(=O)O)cc3)NC(=O)[C@H](CCCCNC(=O)C(C)(C)C)NC(=O)CSC[C@@H](C(=O)N[C@@H](CCN)C(=O)NCCCCCCCCCCC(=O)O)NC(=O)[C@H](C(C)O)NC(=O)[C@H](C(C)C)NC(=O)[C@H](CC3CCCCC3)NC(=O)[C@H](CCN)NC(=O)[C@@H](CC(C)C)NC(=O)[C@H](CCCN)NC(=O)[C@H](CCCNC(N)=O)NC(=O)[C@H](Cc3ccc(-c4ccccc4)cc3)NC(=O)[C@H](C(C)C)NC2=O)c1 (stereo partly drawn) [Compound 3539] ({CH2CO}-K(Piv)Y(Carboxymethyl)D[Phe(3-Me)]V[Bip][Cit][Orn][dL][Dab][Cha]V[Thr(3ξ)]C[Dab][Aun]-OH; thioether N-14),39.9 nM
5,CC(C)C[C@H]1NC(=O)[C@H](CCCN)NC(=O)[C@H](Cc2ccc(O)cc2)NC(=O)[C@H](Cc2ccc(-c3ccccc3)cc2)NC(=O)[C@H](Cc2ccc(O)cc2)NC(=O)[C@H](Cc2c[nH]c3ccccc23)NC(=O)[C@H](CC(=O)O)NC(=O)[C@H](Cc2ccc(OCC(=O)O)cc2)NC(=O)[C@H](CN)NC(=O)CSC[C@@H](C(=O)N[C@@H](CCN)C(=O)NCCCCCCCCCCC(=O)O)NC(=O)[C@H](CN)NC(=O)[C@H](C(C)O)NC(=O)[C@H](CC2CCCCC2)NC(=O)[C@H](CCN)NC1=O (stereo partly drawn) [Compound 3656] ({CH2CO}-[Dap]Y(Carboxymethyl)DWY[Bip]Y[Orn][dL][Dab][Cha][Thr(3ξ)][Dap]C[Dab][Aun]-OH; thioether N-14),178 nM

# Stronger by IC50, values ahead:
row,IC50,Compound
1,12.7 nM,Cc1cccc(C[C@@H]2NC(=O)[C@H](CC(=O)O)NC(=O)[C@H](Cc3ccc(OCC(=O)O)cc3)NC(=O)[C@H](CN)NC(=O)CSC[C@@H](C(=O)NCCOCCOCC(=O)NCCCCCCCCCCC(=O)O)NC(=O)[C@H](CCCNC(=N)N)NC(=O)[C@H](C(C)C)NC(=O)[C@H](CC3CCCCC3)NC(=O)[C@H](CCN)NC(=O)[C@@H](CC(C)C)NC(=O)[C@H](CCCN)NC(=O)[C@H](C(C)C)NC(=O)[C@H](Cc3ccc(-c4ccccc4)cc3)NC(=O)[C@H](C(C)C)NC2=O)c1 [Compound 2568] ({CH2CO}-[Dap]Y(Carboxymethyl)D[Phe(3-Me)]V[Bip]V[Orn][dL][Dab][Cha]VRC[AEEA][Aun]-OH; thioether N-14)
2,12.4 nM,Cc1cccc(C[C@@H]2NC(=O)[C@H](CC(=O)O)NC(=O)[C@H](Cc3ccc(OCC(=O)O)cc3)NC(=O)[C@H](CN)NC(=O)CSC[C@@H](C(=O)N[C@@H](CCN)C(=O)NCCOCCOCC(=O)NCCCCCCCCCCC(=O)O)NC(=O)[C@H](CCCN)NC(=O)[C@H](C(C)C)NC(=O)[C@H](CC3CCCCC3)NC(=O)[C@H](CCN)NC(=O)[C@@H](CC(C)C)NC(=O)[C@H](CCCN)NC(=O)[C@H](Cc3ccccc3C)NC(=O)[C@H](Cc3ccc(-c4ccccc4)cc3)NC(=O)[C@H](Cc3ccc(O)cc3)NC2=O)c1 [Compound 2048] ({CH2CO}-[Dap]Y(Carboxymethyl)D[Phe(3-Me)]Y[Bip][Phe(2-Me)][Orn][dL][Dab][Cha]V[Orn]C[Dab][AEEA][Aun]-OH; thioether N-14)
3,8.2 nM,CC(=O)NCCCC[C@@H]1NC(=O)[C@H](Cc2ccc(-c3ccccc3)cc2)NC(=O)[C@H](C(C)C)NC(=O)[C@H](Cc2c[nH]c3ccccc23)NC(=O)[C@H](CC(=O)O)NC(=O)[C@H](Cc2ccc(OCC(=O)O)cc2)NC(=O)[C@H](CCCNC(=N)N)NC(=O)CSC[C@@H](C(=O)NCCOCCOCC(=O)NCCCCCCCCCCC(=O)O)NC(=O)[C@H](C(C)O)NC(=O)[C@H](C(C)C)NC(=O)[C@H](CC2CCCCC2)NC(=O)[C@H](CCN)NC(=O)[C@@H](CC(C)C)NC(=O)[C@H](CCCN)NC1=O (stereo partly drawn) [Compound 3335] ({CH2CO}-RY(Carboxymethyl)DWV[Bip]K(Ac)[Orn][dL][Dab][Cha]V[Thr(3ξ)]C[AEEA][Aun]-OH; thioether N-14)
4,3.6 nM,Cc1cccc(C[C@@H]2NC(=O)[C@H](CC(=O)O)NC(=O)[C@H](Cc3ccc(OCC(=O)O)cc3)NC(=O)[C@H](C(C)O)NC(=O)CSC[C@@H](C(=O)N[C@H](CC(N)=O)C(=O)NCCCCCCCCCCC(=O)O)NC(=O)[C@H](CCN)NC(=O)[C@H](C(C)C)NC(=O)[C@H](CC3CCCCC3)NC(=O)[C@H](CCN)NC(=O)[C@@H](CC(C)C)NC(=O)[C@H](CCCN)NC(=O)[C@H](Cc3ccc(OCC(=O)O)cc3)NC(=O)[C@H](Cc3ccc(-c4ccccc4)cc3)NC(=O)[C@H](Cc3ccc(OCC(=O)O)cc3)NC2=O)c1 (stereo partly drawn) [Compound 3497] ({CH2CO}-[Thr(3ξ)]Y(Carboxymethyl)D[Phe(3-Me)]Y(Carboxymethyl)[Bip]Y(Carboxymethyl)[Orn][dL][Dab][Cha]V[Dab]C[dN][Aun]-OH; thioether N-14)
